Measured values published in PubChem BioAssay (NCI).
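GI50 is the concentration that inhibits growth by half. TGI: total growth inhibition.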

Columns and labels:
Experiment in all cases: NCI anticancer screen, dose series, 384-well format
786-0 renal = system: 786-0 renal
CCRF-CEM leukemia = system: CCRF-CEM leukemia
A498 renal = system: A498 renal
UACC-62 melanoma = system: UACC-62 melanoma
M14 melanoma = system: M14 melanoma
HL-60(TB) leukemia = system: HL-60(TB) leukemia
OVCAR-8 ovarian = system: OVCAR-8 ovarian
DU-145 prostate = system: DU-145 prostate
NCI-H23 lung = system: NCI-H23 lung
HCT-15 colon = system: HCT-15 colon
U251 glioblastoma = system: U251 glioblastoma
ACHN renal = system: ACHN renal
NCI-H460 NSCLC = system: NCI-H460 NSCLC
SW-620 colon = system: SW-620 colon
MCF7 breast = system: MCF7 breast
NCI-H226 lung = system: NCI-H226 lung
HOP-62 NSCLC = system: HOP-62 NSCLC
RXF 393 renal = system: RXF 393 renal
NCI-H522 lung = system: NCI-H522 lung
HCT-116 colon = system: HCT-116 colon
CAKI-1 renal = system: CAKI-1 renal
SK-OV-3 ovarian = system: SK-OV-3 ovarian
SNB-19 CNS = system: SNB-19 CNS
RPMI-8226 leukemia = system: RPMI-8226 leukemia
MOLT-4 leukemia = system: MOLT-4 leukemia
NCI/ADR-RES ovarian = system: NCI/ADR-RES ovarian
MALME-3M melanoma = system: MALME-3M melanoma
NCI-H322M lung = system: NCI-H322M lung
SR leukemia = system: SR leukemia
KM12 colon = system: KM12 colon
HT29 colon = system: HT29 colon
OVCAR-5 ovarian = system: OVCAR-5 ovarian
MDA-MB-468 breast = system: MDA-MB-468 breast
PC-3 prostate = system: PC-3 prostate
A549 NSCLC = system: A549 NSCLC
SK-MEL-2 melanoma = system: SK-MEL-2 melanoma
IGROV1 ovarian = system: IGROV1 ovarian
TK-10 renal = system: TK-10 renal
T-47D breast = system: T-47D breast
SF-539 CNS = system: SF-539 CNS
SN12C renal = system: SN12C renal
K-562 leukemia = system: K-562 leukemia
SF-268 CNS = system: SF-268 CNS
OVCAR-3 ovarian = system: OVCAR-3 ovarian
MDA-MB-435 melanoma = system: MDA-MB-435 melanoma
SF-295 CNS = system: SF-295 CNS
UO-31 renal = system: UO-31 renal
HCC-2998 colon = system: HCC-2998 colon
OVCAR-4 ovarian = system: OVCAR-4 ovarian
LOX IMVI melanoma = system: LOX IMVI melanoma
SK-MEL-5 melanoma = system: SK-MEL-5 melanoma
SK-MEL-28 melanoma = system: SK-MEL-28 melanoma
UACC-257 melanoma = system: UACC-257 melanoma
MDA-MB-231 breast = system: MDA-MB-231 breast
BT-549 breast = system: BT-549 breast
HOP-92 NSCLC = system: HOP-92 NSCLC
COLO 205 colon = system: COLO 205 colon

Work on `Cc1c(S(C)(=O)=O)c(-c2cc(F)cc(N3CCN(c4ccc(NS(=O)(=O)c5ccc(N[C@H](CCN6CCC(C(=O)OCCCP(=O)(O)O)CC6)CSc6ccccc6)c(S(=O)(=O)C(F)(F)F)c5)cc4)CC3)c2)c(-c2ccc(Cl)cc2)n1C(C)C` yielded a GI50 ([…]-0 renal) of over 100 µM, a TGI (786-0 renal) of over 100 µM and a GI50 (CCRF-CEM leukemia) of 0.0412 µM. The TGI (CCRF-CEM leukemia) was 0.178 µM, the GI50 (A498 renal) was over 100 µM and the TGI (A498 renal) was over 100 µM. For the same molecule, the GI50 (UACC-62 melanoma) was over 100 µM, the TGI (UACC-62 melanoma) was over 100 µM and the GI50 (M14 melanoma) was over 100 µM. It also gave a TGI (M14 melanoma) of over 100 µM, a GI50 (HL-60(TB) leukemia) of over 100 µM and a TGI (HL-60(TB) leukemia) of over 100 µM. For the same molecule, the GI50 (OVCAR-8 ovarian) was over 100 µM, the TGI (OVCAR-8 ovarian) was over 100 µM and the GI50 (DU-145 prostate) was over 100 µM. For the same molecule, the TGI (DU-145 prostate) was over 100 µM, the GI50 (NCI-H23 lung) was over 100 µM and the TGI (NCI-H23 lung) was over 100 µM. The GI50 (HCT-15 colon) was over 100 µM, the TGI (HCT-15 colon) was over 100 µM and the GI50 (U251 glioblastoma) was over 100 µM. For the same molecule, the TGI (U251 glioblastoma) was over 100 µM, the GI50 (ACHN renal) was over 100 µM and the TGI (ACHN renal) was over 100 µM. The GI50 (NCI-H460 NSCLC) was over 100 µM, the TGI (NCI-H460 NSCLC) was over 100 µM and the GI50 (SW-620 colon) was over 100 µM. For the same molecule, the TGI (SW-620 colon) was over 100 µM, the GI50 (MCF7 breast) was over 100 µM and the TGI (MCF7 breast) was over 100 µM. The GI50 (NCI-H226 lung) was over 100 µM, the TGI (NCI-H226 lung) was over 100 µM and the GI50 (HOP-62 NSCLC) was over 100 µM. The TGI (HOP-62 NSCLC) was over 100 µM, the GI50 (RXF 393 renal) was 0.12 µM and the TGI (RXF 393 renal) was 30.3 µM. For the same molecule, the GI50 (NCI-H522 lung) was over 100 µM, the TGI (NCI-H522 lung) was over 100 µM and the GI50 (HCT-116 colon) was over 100 µM. It also gave a TGI (HCT-116 colon) of over 100 µM, a GI50 (CAKI-1 renal) of over 100 µM and a TGI (CAKI-1 renal) of over 100 µM. For the same molecule, the GI50 (SK-OV-3 ovarian) was over 100 µM, the TGI (SK-OV-3 ovarian) was over 100 µM and the GI50 (SNB-19 CNS) was over 100 µM. For the same molecule, the TGI (SNB-19 CNS) was over 100 µM, the GI50 (RPMI-8226 leukemia) was 0.0131 µM and the TGI (RPMI-8226 leukemia) was 0.0361 µM. The GI50 (MOLT-4 leukemia) was 0.0152 µM, the TGI (MOLT-4 leukemia) was 0.0362 µM and the GI50 (NCI/ADR-RES ovarian) was over 100 µM. It also gave a TGI (NCI/ADR-RES ovarian) of over 100 µM, a GI50 (MALME-3M melanoma) of over 100 µM and a TGI (MALME-3M melanoma) of over 100 µM. For the same molecule, the GI50 (NCI-H322M lung) was over 100 µM, the TGI (NCI-H322M lung) was over 100 µM and the GI50 (SR leukemia) was 0.892 µM. The TGI (SR leukemia) was over 100 µM, the GI50 (KM12 colon) was over 100 µM and the TGI (KM12 colon) was over 100 µM. It also gave a GI50 (HT29 colon) of over 100 µM, a TGI (HT29 colon) of over 100 µM and a GI50 (OVCAR-5 ovarian) of over 100 µM. The TGI (OVCAR-5 ovarian) was over 100 µM, the GI50 (MDA-MB-468 breast) was 73.1 µM and the TGI (MDA-MB-468 breast) was over 100 µM. The GI50 (PC-3 prostate) was over 100 µM, the TGI (PC-3 prostate) was over 100 µM and the GI50 (A549 NSCLC) was over 100 µM. It also gave a TGI (A549 NSCLC) of over 100 µM, a GI50 (SK-MEL-2 melanoma) of over 100 µM and a TGI (SK-MEL-2 melanoma) of over 100 µM. It also gave a GI50 (IGROV1 ovarian) of over 100 µM, a TGI (IGROV1 ovarian) of over 100 µM and a GI50 (TK-10 renal) of over 100 µM. The TGI (TK-10 renal) was over 100 µM, the GI50 (T-47D breast) was over 100 µM and the TGI (T-47D breast) was over 100 µM. The GI50 (SF-539 CNS) was over 100 µM, the TGI (SF-539 CNS) was over 100 µM and the GI50 (SN12C renal) was over 100 µM. For the same molecule, the TGI (SN12C renal) was over 100 µM, the GI50 (K-562 leukemia) was over 100 µM and the TGI (K-562 leukemia) was over 100 µM. The GI50 (SF-268 CNS) was over 100 µM, the TGI (SF-268 CNS) was over 100 µM and the GI50 (OVCAR-3 ovarian) was over 100 µM. The TGI (OVCAR-3 ovarian) was over 100 µM, the GI50 (MDA-MB-435 melanoma) was over 100 µM and the TGI (MDA-MB-435 melanoma) was over 100 µM. The GI50 (SF-295 CNS) was over 100 µM, the TGI (SF-295 CNS) was over 100 µM and the GI50 (UO-31 renal) was over 100 µM. For the same molecule, the TGI (UO-31 renal) was over 100 µM, the GI50 (HCC-2998 colon) was 0.425 µM and the TGI (HCC-2998 colon) was 15.6 µM. The GI50 (OVCAR-4 ovarian) was over 100 µM, the TGI (OVCAR-4 ovarian) was over 100 µM and the GI50 (LOX IMVI melanoma) was over 100 µM. For the same molecule, the TGI (LOX IMVI melanoma) was over 100 µM, the GI50 (SK-MEL-5 melanoma) was over 100 µM and the TGI (SK-MEL-5 melanoma) was over 100 µM. The GI50 (SK-MEL-28 melanoma) was over 100 µM, the TGI (SK-MEL-28 melanoma) was over 100 µM and the GI50 (UACC-257 melanoma) was over 100 µM. It also gave a TGI (UACC-257 melanoma) of over 100 µM, a GI50 (MDA-MB-231 breast) of 0.945 µM and a TGI (MDA-MB-231 breast) of 15 µM. The GI50 (BT-549 breast) was over 100 µM, the TGI (BT-549 breast) was over 100 µM and the GI50 (HOP-92 NSCLC) was 0.0429 µM. The TGI (HOP-92 NSCLC) was 0.739 µM, the GI50 (COLO 205 colon) was over 100 µM and the TGI (COLO 205 colon) was over 100 µM.
